Reference: ChEMBL document CHEMBL1201862, “PubChem BioAssay data set” (2004)
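Step 1: Grow cells in 96-well plates. Step 2: Expose to compound for 48 hours at 5 concentrations. Step 3: Interpolate endpoints linearly; if unreached, use highest concentration. Here, GI50 denotes the concentration required for 50% inhibition of growth.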 Calls of active or inactive are those of the source. Rule as the data show it: active = GI50 up to about 1.1 µM and inactive = higher.

Experiments:
Experiment in all cases: inhibition of tumour cell growth, NCI panel, 48 h
DU-145 = system: DU-145
HCC 2998 = system: HCC 2998
HCT-116 = system: HCT-116
HL-60 = system: HL-60
HOP-92 = system: HOP-92
Hs-578T = system: Hs-578T
IGROV-1 = system: IGROV-1
M14 = system: M14
NCI-H23 = system: NCI-H23
NCI-H460 = system: NCI-H460
NCI-H522 = system: NCI-H522
NCI/ADR-RES = system: NCI/ADR-RES
OVCAR-8 = system: OVCAR-8
PC-3 = system: PC-3
RPMI-8226 = system: RPMI-8226
SK-MEL-28 = system: SK-MEL-28
SK-MEL-5 = system: SK-MEL-5
SW-620 = system: SW-620
TK-10 = system: TK-10

Measured: GI50

O=S(=O)(O)c1ccc2c(/N=N/c3ccc(/N=N/c4ccccc4)cc3)c(O)c(S(=O)(=O)O)cc2c1
inactive: DU-145 > 100 µM | HCC 2998 > 100 µM | HCT-116 50.1 µM | HL-60 > 100 µM | HOP-92 > 100 µM | Hs-578T > 100 µM | IGROV-1 > 100 µM | M14 > 100 µM | NCI-H23 > 100 µM | NCI-H460 > 100 µM | NCI-H522 > 100 µM | NCI/ADR-RES > 100 µM | OVCAR-8 > 100 µM | PC-3 > 100 µM | RPMI-8226 > 100 µM | SK-MEL-28 > 100 µM | SK-MEL-5 > 100 µM | SW-620 > 100 µM | TK-10 > 100 µM

COc1cc(/C=C/C=C2\CC/C(=C\C=C\c3ccc(O)c(OC)c3)C2=O)ccc1O
inactive: DU-145 > 100 µM | HCC 2998 > 100 µM | HCT-116 > 100 µM | HL-60 7.41 µM | HOP-92 > 100 µM | Hs-578T > 100 µM | IGROV-1 > 100 µM | M14 > 100 µM | NCI-H23 > 73.1 µM | NCI-H460 > 100 µM | NCI-H522 1.45 µM | NCI/ADR-RES > 100 µM | OVCAR-8 > 100 µM | PC-3 > 100 µM | RPMI-8226 57.3 µM | SK-MEL-28 > 100 µM | SK-MEL-5 > 87.9 µM | SW-620 > 100 µM | TK-10 > 100 µM

O=C1OC(C2Cc3ccccc3C2=O)c2ccccc21 (stereo not given)
inactive: DU-145 > 100 µM | HCC 2998 > 100 µM | HCT-116 > 100 µM | HL-60 > 100 µM | HOP-92 > 100 µM | Hs-578T > 100 µM | IGROV-1 > 100 µM | M14 > 100 µM | NCI-H23 > 100 µM | NCI-H460 > 100 µM | NCI-H522 > 100 µM | NCI/ADR-RES > 100 µM | OVCAR-8 > 100 µM | PC-3 > 100 µM | RPMI-8226 > 100 µM | SK-MEL-28 > 100 µM | SK-MEL-5 > 100 µM | SW-620 > 100 µM | TK-10 > 100 µM

NP(=O)(Oc1c2occc2cc2ccc(=O)oc12)N(CCCl)CCCl (stereo not given)
inactive: DU-145 > 100 µM | HCC 2998 > 100 µM | HCT-116 > 100 µM | HL-60 70.1 µM | HOP-92 49.1 µM | Hs-578T > 100 µM | IGROV-1 > 100 µM | M14 > 100 µM | NCI-H23 > 100 µM | NCI-H460 68.1 µM | NCI-H522 > 100 µM | NCI/ADR-RES > 100 µM | OVCAR-8 73.6 µM | PC-3 > 100 µM | RPMI-8226 89.7 µM | SK-MEL-28 > 100 µM | SK-MEL-5 27.9 µM | SW-620 > 100 µM | TK-10 > 100 µM

COc1cc(-c2coc3c(OC)c(OC4OC(CO)C(O)C(O)C4O)c(OC)cc3c2=O)cc(OC)c1C (stereo not given)
inactive: DU-145 8.41 µM | HCC 2998 3.89 µM | HCT-116 1.69 µM | HL-60 4.53 µM | HOP-92 17.7 µM | Hs-578T 4.17 µM | IGROV-1 4.65 µM | M14 4.45 µM | NCI-H23 3.98 µM | NCI-H460 8.75 µM | NCI-H522 3.36 µM | NCI/ADR-RES 7.36 µM | OVCAR-8 3.38 µM | PC-3 7.01 µM | RPMI-8226 4.54 µM | SK-MEL-28 4.8 µM | SK-MEL-5 12.1 µM | SW-620 6.1 µM | TK-10 18.4 µM

O=C1NCC2(CCN(Cc3ccccc3)CC2)N1
inactive: DU-145 > 100 µM | HCC 2998 > 100 µM | HCT-116 > 100 µM | HL-60 > 100 µM | HOP-92 > 100 µM | Hs-578T > 100 µM | IGROV-1 > 100 µM | M14 > 100 µM | NCI-H23 > 100 µM | NCI-H460 > 100 µM | NCI-H522 > 100 µM | NCI/ADR-RES > 100 µM | OVCAR-8 > 100 µM | PC-3 > 100 µM | RPMI-8226 > 100 µM | SK-MEL-28 > 100 µM | SK-MEL-5 > 100 µM | SW-620 > 100 µM | TK-10 > 100 µM

Cc1nc2ccccc2[nH]/c1=N/Nc1ccccc1
inactive: DU-145 22.7 µM | HCC 2998 38.9 µM | HCT-116 25.8 µM | HL-60 11.7 µM | HOP-92 3.8 µM | Hs-578T 31.1 µM | IGROV-1 3.73 µM | M14 20.2 µM | NCI-H23 18.1 µM | NCI-H460 35.6 µM | NCI-H522 26.1 µM | NCI/ADR-RES 15 µM | OVCAR-8 20.3 µM | PC-3 26.1 µM | RPMI-8226 8.2 µM | SK-MEL-28 26.5 µM | SK-MEL-5 14 µM | SW-620 40.6 µM | TK-10 > 100 µM

c1c[nH]c(C23C4C5C6C4C2C6C53)n1 (stereo not given)
inactive: DU-145 > 100 µM | HCC 2998 > 100 µM | HCT-116 > 100 µM | HL-60 > 100 µM | HOP-92 > 100 µM | Hs-578T > 100 µM | IGROV-1 > 100 µM | M14 > 100 µM | NCI-H23 > 100 µM | NCI-H460 > 100 µM | NCI-H522 > 100 µM | NCI/ADR-RES > 100 µM | OVCAR-8 > 100 µM | PC-3 > 100 µM | RPMI-8226 > 100 µM | SK-MEL-28 > 100 µM | SK-MEL-5 > 100 µM | SW-620 > 100 µM | TK-10 > 100 µM

Cc1nc2c(nc1C)-c1[nH]c3c(c1C(=O)C2=O)CCCC3=O
inactive: DU-145 4.49 µM | HCC 2998 2.08 µM | HCT-116 2.54 µM | HL-60 2.42 µM | HOP-92 1.69 µM | Hs-578T 3.66 µM | IGROV-1 2.55 µM | M14 1.77 µM | NCI-H23 1.93 µM | NCI-H460 3.94 µM | NCI-H522 2.1 µM | NCI/ADR-RES 2.25 µM | OVCAR-8 1.5 µM | PC-3 4.25 µM | RPMI-8226 1.25 µM | SK-MEL-28 1.71 µM | SK-MEL-5 1.49 µM | SW-620 1.95 µM | TK-10 17.5 µM

CCC(c1ccc(OC)cc1)C1NC(=S)NC1=O (stereo not given)
inactive: DU-145 > 50 µM | HCC 2998 > 50 µM | HCT-116 > 50 µM | HL-60 12.4 µM | HOP-92 > 50 µM | Hs-578T > 50 µM | IGROV-1 > 50 µM | M14 > 50 µM | NCI-H23 > 50 µM | NCI-H460 > 50 µM | NCI-H522 > 50 µM | NCI/ADR-RES > 50 µM | OVCAR-8 > 50 µM | PC-3 > 50 µM | RPMI-8226 > 50 µM | SK-MEL-28 > 50 µM | SK-MEL-5 > 50 µM | SW-620 > 50 µM | TK-10 > 50 µM
